Experimental data taken from EPA's aquatic toxicity sets.

test system: Pimephales promelas; test: 96 h LC50 (-log10 mol/L); higher = more toxic

| Structure (SMILES) | 96 h LC50 (-log10 mol/L) |
| --- | --- |
| CCOC(=O)/C=C/C(=O)OCC | 4.58 |
| CCCCN | 2.44 |
| C=C(C)[C@H]1CC=C(C)CC1 | 5.28 |
| C#CC(C)(O)CCC(C)C (stereo not given) | 3.46 |
| O=C(Oc1ccccc1)c1ccccc1C(=O)Oc1ccccc1 | 6.6 |
| C=C(C)C(=O)OCCOCC | 3.76 |
| O=[N+]([O-])C(CO)(CO)CO | 2.73 |
| COc1ccccc1[N+](=O)[O-] | 2.9 |
| Clc1cccc(C(Cl)(Cl)Cl)n1 | 4.37 |
| C=C[C@@]1(C)CC[C@H]2C(=CC[C@@H]3[C@]2(C)CCC[C@@]3(C)C(=O)O)C1 | 5.54 |
| Cc1c(N)cccc1[N+](=O)[O-] | 3.48 |
| OC(C(F)(F)F)C(F)(F)F | 2.84 |
| CC(C)SSC(C)C | 4.26 |
| CC(C)(C)c1ccc(CSc2cnn(C(C)(C)C)c(=O)c2Cl)cc1 | 8.2 |
| Nc1ccc(O)c([N+](=O)[O-])c1 | 3.63 |
| Nc1ccc([N+](=O)[O-])cc1Cl | 3.93 |
| NCCCN1CCN(CCCN)CC1 | 1.81 |
| BrCC1CCCCO1 (stereo not given) | 2.94 |
| CC(=O)Nc1ccccc1O | 3.66 |
| CC(C)[C@@H]1CC[C@@H](C)C[C@H]1O | 3.92 |

| Structure (SMILES) | 96 h LC50 (-log10 mol/L) |
| --- | --- |
| CCCCCCCCOC(=O)C(C)O (stereo not given) | 3.93 |
| CCC(=O)c1ccc(N)cc1 | 3.01 |
| CN(C)C(=O)C(c1ccccc1)c1ccccc1 | 3.7 |
| O=Cc1c(F)cccc1Cl | 4.23 |
| CCN(CC)c1ccc(C=O)cc1 | 3.87 |
| CC(C)C(C(=O)OC(C#N)c1cccc(Oc2ccccc2)c1)c1ccc(Cl)cc1 (stereo not given) | 8.14 |
| CC1=CC[C@@H]2C[C@H]1C2(C)C | 5.69 |
| CCOC(=O)/C=C\C(=O)OCC | 3.98 |
| CCCCN(CC)c1c([N+](=O)[O-])cc(C(F)(F)F)cc1[N+](=O)[O-] | 6.53 |
| O=C(Oc1ccccc1)c1ccccc1O | 5.28 |
| O=C(Cl)c1ccccc1 | 3.61 |
| CN(C)C(=O)N[C@@H]1C[C@@H]2C[C@H]1[C@@H]1CCC[C@H]21 | 3.84 |
| Cc1cocn1 | 1.78 |
| C=C(C)C(=C)C | 4.08 |
| CCCSP(=O)(OCC)Oc1ccc(Br)cc1Cl (stereo not given) | 6.64 |
| COc1ccc(C(c2ccc(OC)cc2)C(Cl)(Cl)Cl)cc1 | 7.61 |
| CCCCOCC(C)OC(=O)C(C)Oc1cc(Cl)c(Cl)cc1Cl (stereo not given) | 4.73 |
| CCOC(CN(C)CC(OCC)OCC)OCC | 2.62 |
| Oc1ccc(Oc2ccc(O)cc2)cc1 | 4.54 |

test system: Tetrahymena pyriformis; test: 48 h IGC50 (-log10 mol/L); higher = more toxic

| Structure (SMILES) | 48 h IGC50 (-log10 mol/L) |
| --- | --- |
| N#Cc1ccc(Cl)cc1 | 3 |
| OC/C=C/c1ccccc1 | 2.92 |
| CC#CCOC(C)=O | 2.12 |
| CC(O)C(c1ccccc1)c1ccccc1 (stereo not given) | 3.75 |
| CCCOC=O | 1.98 |
| CCCCC(=O)c1ccccc1 | 3.56 |
| O=C1C=Cc2ccccc2C1=O | 6.2 |
| CCOC(=O)C(Br)C(=O)OCC | 5.21 |
| NC(=O)COc1ccccc1 | 2.27 |
| CCC#CC(C)O (stereo not given) | 3.51 |
| C#CCCCCO | 1.71 |
| CCCCCCCCC(O)CCC (stereo not given) | 4.65 |
| CCc1cccc2ccccc12 | 3.89 |
| CC/C=C/C=C/C=O | 3.86 |
| CCCC#CCO | 2.62 |
| C/C=C/C(=O)CCCC | 4.01 |
| NC(=S)NCc1ccccc1 | 3.66 |
| O=[N+]([O-])c1ccc2ccccc2c1O | 4.36 |
| OCCCc1ccccc1 | 2.79 |
| COC(=O)C(C)Br (stereo not given) | 4.18 |
| N#CCBr | 5.23 |
| C=CCC(=O)O | 2.36 |
| CC=CC(C)O (stereo not given) | 1.6 |

| Structure (SMILES) | 48 h IGC50 (-log10 mol/L) |
| --- | --- |
| O=C(O)CCCCCl | 2.71 |
| O=[N+]([O-])c1ccc(O)c(Cl)c1 | 4.18 |
| C=CCCC(C)=O | 1.86 |
| NCCO | 1.11 |
| OCc1cccc(Cl)c1 | 3.15 |
| Cc1cc(N)ccc1O | 4.31 |
| C#CC(O)C(C)CCC (stereo not given) | 3.74 |
| COc1cc(Cl)cc(Cl)c1 | 3.93 |
| CCC(Cl)C(N)=O (stereo not given) | 1.78 |
| COc1cc(C(C)=O)ccc1O | 2.88 |
| CCCC(O)CC (stereo not given) | 2.15 |
| CCCCCCC(=O)O | 2.89 |
| CCCCCCCCCC(=O)O | 3.51 |
| Cc1c(O)cccc1[N+](=O)[O-] | 3.78 |
| CCN(C)c1ccccc1 | 3.29 |
| COC(=O)CC#N | 1.66 |
| CC(=O)c1cc(C)c(C)cc1O | 3.71 |
| CC(C)CCCO | 2.36 |
| OCC(c1ccccc1)c1ccccc1 | 3.65 |
| N#CCc1ccc(O)cc1 | 2.62 |
| CC(C#N)c1ccccc1 (stereo not given) | 3.01 |
| Oc1ccccc1Br | 3.33 |
| O=[N+]([O-])c1c(Cl)cc(Cl)cc1Cl | 4.43 |

| Structure (SMILES) | 48 h IGC50 (-log10 mol/L) |
| --- | --- |
| Cc1ccc(N)cc1C | 2.84 |
| CC(C)CC(=O)O | 2.66 |
| O=[N+]([O-])c1cc(Cl)cc(Cl)c1O | 4.75 |
| OCCc1ccc(Cl)cc1 | 3.32 |
| C=CCCO | 1.3 |
| CC(C)(C)OC=O | 1.63 |
| CC(C)c1ccc(Br)cc1 | 3.85 |
| CC(C)(C)CC=O | 2.63 |
| Nc1cccc(O)c1 | 2.48 |
| CCOc1ccc(C(=O)OC)cc1 | 3.58 |
| CCCCC/C=C/C(C)=O | 3.98 |
| CCCCCC(N)=O | 2.09 |
| NC(=O)CCl | 3.04 |
| CCCCc1ccco1 | 3.44 |
| O=[N+]([O-])c1ccccc1Br | 3.75 |
| O=Cc1cccc(Br)c1 | 3.51 |
| COC(=O)C=C(C)C | 1.94 |
| Nc1ccccc1Cl | 2.83 |
| CCCCS(=O)CCCC | 2.74 |
| CC#CC(O)CC (stereo not given) | 2.81 |
| Oc1ccc(C(F)(F)F)cc1 | 3.62 |
| OC(c1ccccc1)c1ccccc1 | 3.5 |
| c1cncnc1 | 1.25 |

| Structure (SMILES) | 48 h IGC50 (-log10 mol/L) |
| --- | --- |
| CCOC(=O)Cc1ccc(O)c(OC)c1 | 2.77 |
| Cc1ccc2nc(C)ccc2c1 | 3.68 |
| Cc1ccc([N+](=O)[O-])cc1O | 3.66 |
| C=CC(=O)OCCC | 3.53 |
| CCCCCCC(C)=O | 2.85 |
| Nc1c(Br)cc(Br)cc1[N+](=O)[O-] | 4.62 |
| CCCCCCCCCCC(C)O (stereo not given) | 4.66 |
| O=C(OCc1ccccc1)c1ccccc1 | 4.45 |
| S=C=NC(c1ccccc1)c1ccccc1 | 6.05 |
| CCOC(=O)CCC(=O)CCC(=O)OCC | 2.36 |
| COC(=O)CCl | 3.89 |
| C=CCSc1ccccc1 | 3.69 |
| C=C(C)C(=O)OCC(CC)CCCC (stereo not given) | 4.57 |
| O=[N+]([O-])c1cccc(Br)c1 | 4.03 |
| CCOC(=O)CCCC(=O)CC(=O)OCC | 2.62 |
| C=CC(=O)N(C)C | 1.76 |
| CCC(Cl)C(=O)O (stereo not given) | 2.65 |
| CC#CC(=O)OCC | 3.51 |
| Cc1c(N)cccc1O | 2.45 |
| CC(=O)CCc1ccc(O)cc1 | 2.5 |
| Oc1cc(O)cc(O)c1 | 1.74 |
| CCCCCCC(C)O (stereo not given) | 3 |
